Molecular target: MAPK14 (UniProt Q16539)
Test: Inhibition of MAPK14 Kinase Activity

Sequence of MAPK14 (Q16539 whole entry, looked up): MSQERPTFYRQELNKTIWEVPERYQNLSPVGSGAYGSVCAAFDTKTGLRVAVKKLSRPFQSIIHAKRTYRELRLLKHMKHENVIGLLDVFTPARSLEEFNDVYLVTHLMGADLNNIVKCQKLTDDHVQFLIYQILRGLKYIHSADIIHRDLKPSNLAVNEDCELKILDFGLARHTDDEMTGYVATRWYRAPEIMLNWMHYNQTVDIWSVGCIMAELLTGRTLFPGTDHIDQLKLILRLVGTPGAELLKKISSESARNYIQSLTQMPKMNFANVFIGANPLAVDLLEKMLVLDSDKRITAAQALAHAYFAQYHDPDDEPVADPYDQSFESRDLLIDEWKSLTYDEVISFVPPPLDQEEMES

Row | SMILES | IC50
1 | COc1cccc(CNC(=O)c2ccc(-c3cc(C(=O)Nc4nccs4)ccc3C)nc2)c1 | < 10 µM
2 | CCC1CCCN(C(=O)c2ccc(-c3cc(C(=O)NC4CC4)cc(F)c3C)nc2)C1 (stereo unspecified) | < 10 µM
3 | Cc1ccc(C(=O)NCC2CC2)cc1-c1ccc(C(=O)NCC2CC2)cn1 | < 10 µM
4 | Cc1c(F)cc(C(=O)NC2CC2)cc1-c1ccc(C(=O)NCc2c(F)ccc(F)c2Cl)cn1 | < 10 µM
5 | Cc1c(F)cc(C(=O)NC2CC2)cc1-c1ccc(C(=O)NCc2cccc(Cl)c2F)cn1 | < 10 µM
6 | Cc1ccc(C(=O)Nc2nncs2)cc1-c1ccc(C(=O)NCc2cccc(NS(C)(=O)=O)c2)cn1 | < 10 µM
7 | COc1ccc(NC(=O)c2ccc(-c3cc(NC(=O)c4ccoc4)ccc3C)nc2)cc1 | < 10 µM
8 | Cc1ccc(C(=O)NCC2CC2)cc1-c1ccc(C(=O)Nc2ccccc2CN2CCN(C)CC2)cn1 | < 10 µM
9 | Cc1ccc(NC(=O)c2ccoc2)cc1-c1ccc(C(=O)NCc2cccc(NS(C)(=O)=O)c2)cn1 | < 10 µM
10 | COc1cccc(CNC(=O)c2ccc(-c3cc(NC(=O)c4ccsc4)ccc3C)nc2)c1 | < 10 µM

More lines, now with the values ahead:

Row | IC50 | SMILES
11 | < 10 µM | Cc1ccc(CNC(=O)c2ccc(-c3cc(C(=O)NC4CC4)cc(F)c3C)nc2)cc1
12 | < 10 µM | CC(C)=CCNC(=O)c1ccc(-c2cc(C(=O)NC3CC3)cc(F)c2C)nc1
13 | < 10 µM | CCCC(C)NC(=O)c1ccc(-c2cc(C(=O)NC3CC3)cc(F)c2C)nc1 (stereo unspecified)
14 | < 10 µM | Cc1ccc(CNC(=O)c2ccc(-c3cc(C(=O)NC4CC4)cc(F)c3C)nc2)o1
15 | < 10 µM | Cc1csc(CCNC(=O)c2ccc(-c3cc(C(=O)NC4CC4)cc(F)c3C)nc2)n1
16 | < 10 µM | Cc1c(F)cc(C(=O)NC2CC2)cc1-c1ccc(C(=O)NCc2ccc(Cl)cc2)cn1
17 | < 10 µM | Cc1ccsc1CNC(=O)c1ccc(-c2cc(C(=O)NC3CC3)cc(F)c2C)nc1
18 | < 10 µM | Cc1ccc(NC(=O)c2ccc(-c3cc(C(=O)NC4CC4)cc(F)c3C)nc2)cc1
19 | < 10 µM | Cc1c(F)cc(C(=O)NC2CC2)cc1-c1ccc(C(=O)NCC2CCCC2)cn1
20 | < 10 µM | CCC(C)(CC)NC(=O)c1ccc(-c2cc(C(=O)NC3CC3)cc(F)c2C)nc1
21 | < 10 µM | CCC(C)(C)NC(=O)c1ccc(-c2cc(C(=O)NC3CC3)cc(F)c2C)nc1
